Measurements from ChEMBL document CHEMBL1136678, “Novel indole-based inhibitors of IMPDH: introduction of hydrogen bond acceptors at indole C-3” (Bioorg Med Chem Lett, 2003).

Legend:
[1] = target: Inosine-5'-monophosphate dehydrogenase 2 (Homo sapiens, UniProt P12268); experiment: Inhibition of 5'-inosine monophosphate dehydrogenase type II (IMPDH II)
CCRF-CEM = experiment: Inhibition of CEM T-cell proliferation; format: functional, cell-based; settings: Homo sapiens
[2] = target: Inosine-5'-monophosphate dehydrogenase 1 (Homo sapiens, UniProt P20839); experiment: Inhibition of 5'-inosine monophosphate dehydrogenase type I (IMPDH I)
Inosine-5'-monophosphate dehydrogenase 1, sequence (P20839 whole entry): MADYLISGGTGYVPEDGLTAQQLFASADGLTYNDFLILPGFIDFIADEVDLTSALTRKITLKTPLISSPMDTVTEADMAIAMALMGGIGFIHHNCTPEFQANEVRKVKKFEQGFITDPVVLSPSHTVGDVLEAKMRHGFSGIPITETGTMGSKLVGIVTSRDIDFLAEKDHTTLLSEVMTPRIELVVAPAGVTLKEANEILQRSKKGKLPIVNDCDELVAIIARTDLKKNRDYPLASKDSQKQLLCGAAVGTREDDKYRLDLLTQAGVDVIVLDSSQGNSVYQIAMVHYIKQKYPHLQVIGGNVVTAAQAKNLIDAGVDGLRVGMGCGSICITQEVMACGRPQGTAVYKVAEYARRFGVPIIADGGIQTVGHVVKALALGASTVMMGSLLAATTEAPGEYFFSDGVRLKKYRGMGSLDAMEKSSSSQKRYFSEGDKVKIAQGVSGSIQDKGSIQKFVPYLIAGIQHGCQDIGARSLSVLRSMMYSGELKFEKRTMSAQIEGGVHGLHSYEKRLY

Row | IC50 [1] [nM] | IC50 (CCRF-CEM) [nM] | IC50 [2] [nM] | SMILES
1 | 220 | – | – | COc1cc2[nH]c(Cc3ccccc3)c(C#N)c2cc1-c1cnco1
2 | 290 | – | – | COc1cc2[nH]c3c(c2cc1-c1cnco1)CC(=O)CC3
3 | 500 | > 10000 | – | COc1cc2[nH]c(-c3ccccc3)cc2cc1-c1cnco1
4 | 30 | 550 | 160 | COc1cc2[nH]c(-c3csc4ccccc34)c(C=O)c2cc1-c1cnco1
5 | 130 | – | – | COc1cc2[nH]c(-c3ccccc3)c(C#N)c2cc1-c1cnco1
6 | 230 | – | – | COc1cc2[nH]c(-c3ccccc3)c(C=O)c2cc1-c1cnco1
7 | 150 | – | – | COc1cc2[nH]c3c(c2cc1-c1cnco1)CCCC(=O)C3
8 | 500 | – | – | COc1cc2[nH]c(-c3csc4ccccc34)cc2cc1-c1cnco1
9 | 360 | – | – | COc1cc2[nH]c(Cc3ccccc3)c(C=O)c2cc1-c1cnco1
10 | > 1000 | – | – | CCOC(=O)c1c(-c2ccccc2)[nH]c2cc(OC)c(-c3cnco3)cc12
11 | 600 | – | – | COc1cc2[nH]c(Cc3ccccc3)cc2cc1-c1cnco1
12 | 64 | – | – | COc1cc2[nH]c(-c3csc4ccccc34)c(C#N)c2cc1-c1cnco1
